# Results: US7329680B2, “Heterocycle substituted carboxylic acids” (The Institute for Pharmaceutical Discovery, LLC, priority 2003, dated 2008)
row,melting point,SMILES
1,148 °C (dec.),"O=C(O)[C@@H]1CSC(c2ccc(-c3ccc(-c4c(Cc5ccccc5)oc5ccccc45)cc3)cc2)N1 (mixture of isomers) [Example 38, (2RS,4R)-2-[4′-(2-Benzylbenzofuran-3-yl)biphen-4-yl]thiazolidine-4-carboxylic acid]"
2,135 to 137 °C (dec.),"O=C(O)[C@@H]1CSC(c2ccc(-c3ccc(-n4ccc5ccccc54)cc3)cc2)N1 (stereo in doubt) [Example 27, 2-(4′-Indol-1-yl-biphen-4-yl)thiazolidine-4-carboxylic acid]"
3,220 to 223 °C,"O=C(O)C(=O)Nc1cc(-c2ccc(-c3cccc4c3oc3ccccc34)cc2)cn(Cc2ccccc2)c1=O [Example 4, N-[1-Benzyl-5-(4-dibenzofuran-4-yl-phenyl)-2-oxo-1,2-dihydro-pyridin-3-yl]-oxalamic acid]"
4,289 to 292 °C,"CCc1ccc(-c2sc(NC(=O)c3ccc(S(=O)(=O)N4CCCC4C(=O)O)cc3)nc2-c2ccc(Cl)cc2)cc1 (stereo not drawn) [Example 5, 1-{4-[4-(4-Chloro-phenyl)-5-(4-ethyl-phenyl)-thiazol-2-ylcarbamoyl]-benzenesulfonyl}-pyrrolidine-2-carboxylic acid]"
5,205 °C (dec.),"O=C(O)CCNc1cc(-c2ccc(-c3cccc4c3oc3ccccc34)cc2)nc(Cc2ccccc2)n1 [Example 45, 3-[2-Benzyl-6-(4-dibenzofuran-4-yl-phenyl)-pyrimidin-4-ylamino]-propionic acid]"
6,210 °C (dec.),"O=C(O)CCNc1cc(-c2ccc(-c3cccc4c3oc3ccccc34)cc2)nc(-c2ccccc2)n1 [Example 46, 3-[2-phenyl-6-(4-dibenzofuran-4-yl-phenyl)-pyrimidin-4-ylamino]-propionic acid]"
